For this assay, the system named is burns. Put plainly: Treating burns with different combinations of the ingredients. Type of assay: in vivo. Conditions: topical treatment of burns, comparison of ingredient combinations.

Structures are written as SMILES.

Regarding `OB(O)O` [boric acid], the healing of burns result is “appeared to advance healing without infection but only in a very limited fashion”.

The values are drawn from patent US7141252B2, “Composition for the treatment of burns, sunburns, abrasions, ulcers and cutaneous irritation” (priority 2003, dated 2006).
